Laboratory results published in PubChem BioAssay AID220 (DTP/NCI, 2004).
Several values for one entry are separate records, joined by “and”; a condition that tells them apart may be missing. Equal entries are not always repeated. Records with an inconclusive call do not appear.

Test system: CD8F1 mice, subcutaneous mammary adenocarcinoma, T/C%
Experiment: NCI In Vivo Anticancer Drug Screen. Data for tumor model Mammary Adenocarcinoma CD8F1 (subcutaneous) in CD8F1
Details: higher = larger tumour
Procedure, shortened: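 Antitumor activity is assessed in transplantable-tumor mice by comparing the treated group with a vehicle-treated control group. Survival or tumor size serves as the measure, reported as T divided by C.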

[1] = endpoint: median tumor weight change, dose: 62.5 mg/kg/injection, schedule: Q01DX001 (ip), vehicle: saline with Tween-80
[2] = endpoint: median tumor weight change, dose: 125.0 mg/kg/injection, schedule: Q01DX001 (ip), vehicle: saline with Tween-80
[3] = endpoint: median tumor weight change, dose: 125.0 mg/kg/injection, schedule: Q01DX001 (ip), vehicle: saline
[4] = endpoint: median tumor weight change, dose: 250.0 mg/kg/injection, schedule: Q01DX001 (ip), vehicle: saline
[5] = endpoint: median tumor weight (est.), dose: 6.25 mg/kg/injection, schedule: Q07DX005 (ip), vehicle: saline with Tween-80
[6] = endpoint: median tumor weight (est.), dose: 6.25 mg/kg/injection, schedule: Q07DX005 (ip), vehicle: saline
[7] = endpoint: median tumor weight (est.), dose: 12.5 mg/kg/injection, schedule: Q07DX005 (ip), vehicle: saline with Tween-80
[8] = endpoint: median tumor weight (est.), dose: 12.5 mg/kg/injection, schedule: Q07DX005 (ip), vehicle: saline
[9] = endpoint: median tumor weight (est.), dose: 25.0 mg/kg/injection, schedule: Q07DX005 (ip), vehicle: saline with Tween-80
[10] = endpoint: median tumor weight (est.), dose: 50.0 mg/kg/injection, schedule: Q07DX005 (ip), vehicle: saline with Tween-80
[11] = endpoint: median tumor weight (est.), dose: 200.0 mg/kg/injection, schedule: Q07DX005 (ip), vehicle: Klucel (hydroxypropylcellulose) (HPC)

COC(=O)[C@@]12OC[C@]34[C@H]([C@@H](O)[C@@H]1O)[C@@]1(C)CC(=O)C(O)=C(C)[C@@H]1C[C@H]3OC(=O)[C@H](OC(=O)/C=C(/C)C(C)(C)O)[C@@H]24
T/C (endpoint: median tumor weight (est.), dose: 0.05 mg/kg/injection, schedule: Q07DX005 (ip), vehicle: saline): 92 % of control
T/C (endpoint: median tumor weight (est.), dose: 0.1 mg/kg/injection, schedule: Q07DX005 (ip), vehicle: saline): 88 % of control
T/C (endpoint: median tumor weight (est.), dose: 0.2 mg/kg/injection, schedule: Q07DX005 (ip), vehicle: saline): 67 % of control
T/C (endpoint: median tumor weight (est.), dose: 0.4 mg/kg/injection, schedule: Q07DX005 (ip), vehicle: saline): 100 % of control
T/C (endpoint: median tumor weight (est.), dose: 0.8 mg/kg/injection, schedule: Q07DX005 (ip), vehicle: saline): 90 % of control

CCCCCC[Se][Se]CCCCCC
T/C (endpoint: median tumor weight change, dose: 31.25 mg/kg/injection, schedule: Q01DX001 (ip), vehicle: Klucel (hydroxypropylcellulose) (HPC)): 116 % of control
T/C (endpoint: median tumor weight change, dose: 62.5 mg/kg/injection, schedule: Q01DX001 (ip), vehicle: Klucel (hydroxypropylcellulose) (HPC)): 159 % of control

CC(=O)N(C)C
T/C (endpoint: median tumor weight change, dose: 225.0 mg/kg/injection, schedule: Q01DX001 (ip), vehicle: saline): 52 % of control
T/C (endpoint: median tumor weight change, dose: 450.0 mg/kg/injection, schedule: Q01DX001 (ip), vehicle: saline): 85 % of control
T/C (endpoint: median tumor weight change, dose: 900.0 mg/kg/injection, schedule: Q01DX001 (ip), vehicle: saline): 72 % of control and 78 % of control

CN(CCN(C)C(=O)CCOS(C)(=O)=O)C(=O)CCOS(C)(=O)=O
T/C (endpoint: median tumor weight change, dose: 62.0 mg/kg/injection, schedule: Q01DX001 (ip), vehicle: saline): 67 % of control
T/C [1]: 43 % of control
T/C (endpoint: median tumor weight change, dose: 62.5 mg/kg/injection, schedule: Q01DX001 (ip), vehicle: suspension in saline): 39 % of control
T/C [2]: 15 % of control
T/C [3]: 3 % of control
T/C (endpoint: median tumor weight change, dose: 125.0 mg/kg/injection, schedule: Q01DX001 (ip), vehicle: suspension in saline): 10 % of control
T/C [4]: 51 % of control
T/C (endpoint: median tumor weight change, dose: 500.0 mg/kg/injection, schedule: Q01DX001 (ip), vehicle: saline with Tween-80): -17 % of control

Nc1nc2c(C(=O)N3CCCC3)nnn2c2ccccc12
T/C [1]: 77 % of control
T/C [2]: 87 % of control

CCCCCC[C@@H](O)C/C=C\CCCCCCCC(=O)OCCO
T/C [3]: 96 % of control
T/C [4]: 91 % of control
T/C (endpoint: median tumor weight change, dose: 500.0 mg/kg/injection, schedule: Q01DX001 (ip), vehicle: saline): 98 % of control
T/C (endpoint: median tumor weight change, dose: 1000.0 mg/kg/injection, schedule: Q01DX001 (ip), vehicle: saline): 103 % of control
T/C (endpoint: median tumor weight change, dose: 2000.0 mg/kg/injection, schedule: Q01DX001 (ip), vehicle: saline): 95 % of control

COc1cc(O)c2c(O)c3c(c4c2c1[C@]1(C4)C(C)=CCCC1(C)C)[C@H](O)[C@@]1(O)CC(=O)C(C(N)=O)=C(O)[C@@]1(O)C3=O
T/C [5]: 56 % of control
T/C [6]: 47 % of control
T/C [7]: 92 % of control
T/C [8]: 58 % of control
T/C [9]: 95 % of control
T/C (endpoint: median tumor weight (est.), dose: 25.0 mg/kg/injection, schedule: Q07DX005 (ip), vehicle: saline): 87 % of control
T/C [10]: 89 % of control
T/C (endpoint: median tumor weight (est.), dose: 50.0 mg/kg/injection, schedule: Q07DX005 (ip), vehicle: saline): 81 % of control
T/C (endpoint: median tumor weight (est.), dose: 100.0 mg/kg/injection, schedule: Q07DX005 (ip), vehicle: saline): 37 % of control

CC1=C(/C=C/C(C)=C/C=C/C(C)=C/C=O)C(C)(C)CCC1
T/C [1]: 104 % of control
T/C [2]: 74 % of control

C[C@]12CCC(=O)C=C1CC[C@@H]1[C@@H]2[C@@H](O)C[C@@]2(C)[C@H]1CC[C@]2(O)C(=O)CO
T/C (endpoint: median tumor weight (est.), dose: 50.0 mg/kg/injection, schedule: Q07DX005 (ip), vehicle: Klucel (hydroxypropylcellulose) (HPC)): 76 % of control
T/C (endpoint: median tumor weight (est.), dose: 100.0 mg/kg/injection, schedule: Q07DX005 (ip), vehicle: Klucel (hydroxypropylcellulose) (HPC)): 95 % of control
T/C [11]: 60 % of control
T/C (endpoint: median tumor weight (est.), dose: 400.0 mg/kg/injection, schedule: Q07DX005 (ip), vehicle: Klucel (hydroxypropylcellulose) (HPC)): 29 % of control
T/C (endpoint: median tumor weight (est.), dose: 800.0 mg/kg/injection, schedule: Q07DX005 (ip), vehicle: Klucel (hydroxypropylcellulose) (HPC)): 21 % of control
T/C (endpoint: median tumor weight change, dose: 100.0 mg/kg/injection, schedule: Q01DX001 (ip), vehicle: Klucel (hydroxypropylcellulose) (HPC)): 101 % of control
T/C (endpoint: median tumor weight change, dose: 200.0 mg/kg/injection, schedule: Q01DX001 (ip), vehicle: Klucel (hydroxypropylcellulose) (HPC)): 99 % of control
T/C (endpoint: median tumor weight change, dose: 400.0 mg/kg/injection, schedule: Q01DX001 (ip), vehicle: Klucel (hydroxypropylcellulose) (HPC)): 110 % of control
T/C (endpoint: median tumor weight change, dose: 800.0 mg/kg/injection, schedule: Q01DX001 (ip), vehicle: Klucel (hydroxypropylcellulose) (HPC)): 57 % of control

CCCCCn1c(C)cc(/C=C\c2ccc3cc(C)ccc3[n+]2C)c1C
T/C (endpoint: median tumor weight (est.), dose: 39.0 micrograms/kg/injection, schedule: Q07DX005 (ip), vehicle: Klucel (hydroxypropylcellulose) (HPC)): 87 % of control
T/C (endpoint: median tumor weight (est.), dose: 78.0 micrograms/kg/injection, schedule: Q07DX005 (ip), vehicle: Klucel (hydroxypropylcellulose) (HPC)): 72 % of control
T/C (endpoint: median tumor weight (est.), dose: 156.0 micrograms/kg/injection, schedule: Q07DX005 (ip), vehicle: Klucel (hydroxypropylcellulose) (HPC)): 76 % of control
T/C (endpoint: median tumor weight (est.), dose: 312.0 micrograms/kg/injection, schedule: Q07DX005 (ip), vehicle: Klucel (hydroxypropylcellulose) (HPC)): 111 % of control
T/C (endpoint: median tumor weight (est.), dose: 625.0 micrograms/kg/injection, schedule: Q07DX005 (ip), vehicle: Klucel (hydroxypropylcellulose) (HPC)): 107 % of control

COc1cc2c(c(OC)c1OC)-c1c(cc3c(c1OC)OCO3)CC(C)C(C)(O)C2OC(=O)c1ccccc1 (stereo unspecified)
T/C (endpoint: median tumor weight change, dose: 31.0 mg/kg/injection, schedule: Q01DX001 (ip), vehicle: saline + Tween-80 + alcohol): 93 % of control
T/C (endpoint: median tumor weight change, dose: 125.0 mg/kg/injection, schedule: Q01DX001 (ip), vehicle: saline + Tween-80 + alcohol): 121 % of control
T/C (endpoint: median tumor weight change, dose: 250.0 mg/kg/injection, schedule: Q01DX001 (ip), vehicle: saline + Tween-80 + alcohol): 95 % of control
T/C (endpoint: median tumor weight change, dose: 500.0 mg/kg/injection, schedule: Q01DX001 (ip), vehicle: saline + Tween-80 + alcohol): 110 % of control
T/C (endpoint: median tumor weight change, dose: 900.0 mg/kg/injection, schedule: Q01DX001 (ip), vehicle: saline + alcohol): 96 % of control
T/C (endpoint: median tumor weight change, dose: 1800.0 mg/kg/injection, schedule: Q01DX001 (ip), vehicle: saline + alcohol): 124 % of control
T/C (endpoint: median tumor weight change, dose: 3600.0 mg/kg/injection, schedule: Q01DX001 (ip), vehicle: saline + alcohol): 59 % of control

COc1ccc(S(=O)(=O)N/N=C/C(=O)O)cc1
T/C [5]: 55 % of control
T/C [7]: 198 % of control
T/C [9]: 73 % of control and 82 % of control
T/C [10]: 206 % of control
T/C (endpoint: median tumor weight (est.), dose: 200.0 mg/kg/injection, schedule: Q07DX005 (ip), vehicle: saline with Tween-80): 44 % of control and 61 % of control

Cc1nnc2ncccn12
T/C [4]: 92 % of control

CCCCCC#CC1OC12CCCCC2 (stereo unspecified)
T/C (endpoint: median tumor weight change, dose: 100.0 mg/kg/injection, schedule: Q01DX001 (ip), vehicle: saline with Tween-80): 37 % of control
T/C (endpoint: median tumor weight change, dose: 200.0 mg/kg/injection, schedule: Q01DX001 (ip), vehicle: saline with Tween-80): 106 % of control
T/C (endpoint: median tumor weight change, dose: 400.0 mg/kg/injection, schedule: Q01DX001 (ip), vehicle: saline with Tween-80): 51 % of control
T/C (endpoint: median tumor weight change, dose: 800.0 mg/kg/injection, schedule: Q01DX001 (ip), vehicle: saline with Tween-80): 100 % of control

C[n+]1c(-c2cccc3ccccc23)c2cc(N)ccc2c2ccccc21
T/C (endpoint: median tumor weight (est.), dose: 3.12 mg/kg/injection, schedule: Q07DX005 (ip), vehicle: saline): 71 % of control
T/C [6]: 99 % of control
T/C [8]: 49 % of control

CN(C)C(=O)c1cccc(COc2ccc(N3C(N)=NC(N)=NC3(C)C)cc2Cl)c1
T/C (endpoint: median tumor weight (est.), dose: 8.0 mg/kg/injection, schedule: Q07DX005 (ip), vehicle: suspension in saline): 154 % of control
T/C (endpoint: median tumor weight (est.), dose: 16.0 mg/kg/injection, schedule: Q07DX005 (ip), vehicle: suspension in saline): 57 % of control
T/C (endpoint: median tumor weight (est.), dose: 32.0 mg/kg/injection, schedule: Q07DX005 (ip), vehicle: suspension in saline): 64 % of control

CS(=O)(=O)OCCCCOS(C)(=O)=O
T/C (endpoint: median tumor weight (est.), dose: 12.5 mg/kg/injection, schedule: Q07DX005 (ip), vehicle: Klucel (hydroxypropylcellulose) (HPC)): 91 % of control and 95 % of control
T/C (endpoint: median tumor weight (est.), dose: 25.0 mg/kg/injection, schedule: Q07DX005 (ip), vehicle: Klucel (hydroxypropylcellulose) (HPC)): 59 % of control and 70 % of control
T/C [11]: 8 % of control
